# Assay results from patent US20260199481A1, “PROTEIN DEGRADATION TARGETING CHIMERA COMPOUND, COMPOSITION THEREOF, AND USE THEREOF” (TSINGHUA UNIVERSITY, priority 2022, published 2026).
# Like-named read-outs stand apart in the source and are kept apart here.
# System: MCF-7 cells
# Assay: In vitro anti-tumor effect, CellTiter 96 viability assay
# Format: cell-based
# Conditions: Homo sapiens, MCF7, light or radiation study
# Protocol: Experimental Procedure: MCF-7 cells in the logarithmic growth phase were used for the experiment. The cells were seeded at 5000 cells per well in 96-well plates and incubated for 24 hours at 37° C. The cells were treated with Example compounds A1-D3 for 3 h. Subsequently, the irradiated group was irradiated with 10-30 Gy of X-rays, and the cells were continued to be incubated until 72 h after completion of irradiation. At the end of drug treatment, 20 μL of CellTiter 96° solution was added to each well. The well plates were incubated in an incubator for 2-4 hours, and then the absorbance was measured using a plate reader. Data were analyzed with GraphPad Prism software to obtain the IC50 values of each test compound.
# [1] = compound 3 h, then X-rays 10 Gy or 30 Gy, 72 h after irradiation, read-out: Irradiation with 10 Gy or 30 Gy IC50
# [2] = no irradiation, 72 h incubation, read-out: Radiation-free IC50
SMILES,IC50 [1],IC50 [2]
COc1cc(COC(=O)O[C@@H]2C[C@@H](C(=O)N[C@@H](C)c3ccc(-c4scnc4C)cc3)N(C(=O)[C@H](NC(=O)COCCOCCOCCNC(=O)C[C@@H]3N=C(c4ccc(Cl)cc4)c4c(sc(C)c4C)-n4c(C)nnc43)C(C)(C)C)C2)cc(OC)c1 [Compound A2],103 nM,1110 nM
Cc1sc2c(c1C)C(c1ccc(Cl)cc1)=N[C@@H](CC(=O)C(CCCCNc1cccc3c1C(=O)N(C1CCC(=O)NC1=O)C3=O)Cc1c(F)c(F)c(F)c(F)c1F)c1nnc(C)n1-2 (stereo partly shown) [Compound A3],273 nM,2540 nM
Cc1ncsc1-c1ccc([C@H](C)NC(=O)[C@@H]2C[C@@H](OC(=O)OCc3c(F)c(F)c(N=[N+]=[N-])c(F)c3F)CN2C(=O)[C@H](NC(=O)COCCCOCCNC(=O)C[C@@H]2N=C(c3ccc(Cl)cc3)c3c(sc(C)c3C)-n3c(C)nnc32)C(C)(C)C)cc1 [Compound B1],119 nM,1080 nM
COc1cc(COC(=O)O[C@@H]2C[C@@H](C(=O)N[C@@H](C)c3ccc(-c4scnc4C)cc3)N(C(=O)[C@H](NC(=O)COCCCOCCNC(=O)C[C@@H]3N=C(c4ccc(Cl)cc4)c4c(sc(C)c4C)-n4c(C)nnc43)C(C)(C)C)C2)cc(OC)c1 [Compound B2],119 nM,1060 nM
COc1cc(CC(CCCCNc2cccc3c2C(=O)N(C2CCC(=O)NC2=O)C3=O)C(=O)C[C@@H]2N=C(c3ccc(Cl)cc3)c3c(sc(C)c3C)-n3c(C)nnc32)cc(OC)c1 (stereo partly shown) [Compound B3],338 nM,2760 nM
Cc1ncsc1-c1ccc([C@H](C)NC(=O)[C@@H]2C[C@@H](OC(=O)OCc3c(F)c(F)c(N=[N+]=[N-])c(F)c3F)CN2C(=O)[C@H](NC(=O)CCCCCCCCCCNC(=O)C[C@@H]2N=C(c3ccc(Cl)cc3)c3c(sc(C)c3C)-n3c(C)nnc32)C(C)(C)C)cc1 [Compound C1],146 nM,964 nM
COc1cc(COC(=O)O[C@@H]2C[C@@H](C(=O)N[C@@H](C)c3ccc(-c4scnc4C)cc3)N(C(=O)[C@H](NC(=O)CCCCCCCCCCNC(=O)C[C@@H]3N=C(c4ccc(Cl)cc4)c4c(sc(C)c4C)-n4c(C)nnc43)C(C)(C)C)C2)cc(OC)c1 [Compound C2],107 nM,984 nM
Cc1sc2c(c1C)C(c1ccc(Cl)cc1)=N[C@@H](CC(=O)NCCCCNc1cccc3c1C(=O)N(C1CCC(=O)N(C(=O)OCc4c(F)c(F)c(N)c(F)c4F)C1=O)C3=O)c1nnc(C)n1-2 (stereo partly shown) [Compound C3],970 nM,1860 nM
Cc1ncsc1-c1ccc([C@H](C)NC(=O)[C@@H]2C[C@@H](OC(=O)OCc3c(F)c(F)c(N=[N+]=[N-])c(F)c3F)CN2C(=O)[C@H](NC(=O)CCOCc2cn(CCOCCNC(=O)C[C@@H]3N=C(c4ccc(Cl)cc4)c4c(sc(C)c4C)-n4c(C)nnc43)nn2)C(C)(C)C)cc1 [Compound D1],152 nM,1220 nM
COc1cc(COC(=O)O[C@@H]2C[C@@H](C(=O)N[C@@H](C)c3ccc(-c4scnc4C)cc3)N(C(=O)[C@H](NC(=O)CCOCc3cn(CCOCCNC(=O)C[C@@H]4N=C(c5ccc(Cl)cc5)c5c(sc(C)c5C)-n5c(C)nnc54)nn3)C(C)(C)C)C2)cc(OC)c1 [Compound D2],127 nM,1010 nM
COc1cc(COC(=O)N2C(=O)CCC(N3C(=O)c4cccc(NCCCCNC(=O)C[C@@H]5N=C(c6ccc(Cl)cc6)c6c(sc(C)c6C)-n6c(C)nnc65)c4C3=O)C2=O)cc(OC)c1 (stereo partly shown) [Compound D3],104 nM,1960 nM
